Patent publication US20240199692A1 (priority 2019, published 2024)
Where a SMILES comes first, the peptide text is derived from it. [ ]: non-standard residue; d: D form. The star is where a group is joined. Benzoyl(4-OPh) = O=C(c1ccc(Oc2ccccc2)cc1)*; NMeW = CN[C@@H](Cc1c[nH]c2ccccc12)C(=O)O; NMeY = CN[C@@H](Cc1ccc(O)cc1)C(=O)O; NMeF = CN[C@@H](Cc1ccccc1)C(=O)O; NMeI = CC[C@H](C)[C@H](NC)C(=O)O; NMeT = CN[C@H](C(=O)O)[C@@H](C)O; NMeE = CN[C@@H](CCC(=O)O)C(=O)O; NMeD = CN[C@@H](CC(=O)O)C(=O)O; NMeL = CN[C@@H](CC(C)C)C(=O)O; NMeK = CN[C@@H](CCCCN)C(=O)O; NMeM = CN[C@@H](CCSC)C(=O)O; NMeV = CN[C@H](C(=O)O)C(C)C; β3hP = O=C(O)C[C@@H]1CCCN1; Orn = NCCC[C@H](N)C(=O)O; Aze = O=C(O)[C@@H]1CCN1; Dab = NCC[C@H](N)C(=O)O; Dap = NC[C@H](N)C(=O)O; GABA = NCCCC(=O)O

Target: T1, MMP2 (Homo sapiens, UniProt P08253)
T1 sequence (P08253 110-660): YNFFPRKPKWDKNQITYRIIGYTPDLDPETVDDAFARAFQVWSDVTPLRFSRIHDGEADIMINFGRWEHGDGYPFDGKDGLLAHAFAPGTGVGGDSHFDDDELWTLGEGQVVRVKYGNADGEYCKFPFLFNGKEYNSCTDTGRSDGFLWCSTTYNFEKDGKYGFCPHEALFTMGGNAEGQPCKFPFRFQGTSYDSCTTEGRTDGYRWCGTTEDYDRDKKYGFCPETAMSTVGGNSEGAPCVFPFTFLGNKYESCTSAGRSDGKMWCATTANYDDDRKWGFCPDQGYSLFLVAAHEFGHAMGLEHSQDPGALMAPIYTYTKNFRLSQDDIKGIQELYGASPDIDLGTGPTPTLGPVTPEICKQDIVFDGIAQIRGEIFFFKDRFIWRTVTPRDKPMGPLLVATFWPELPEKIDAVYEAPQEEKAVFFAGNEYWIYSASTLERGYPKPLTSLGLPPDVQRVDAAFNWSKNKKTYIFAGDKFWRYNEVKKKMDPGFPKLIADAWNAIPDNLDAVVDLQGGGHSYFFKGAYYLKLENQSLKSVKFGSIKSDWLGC
Assay: Inhibitory effects on human MMP2 (Method 1), enzyme assay with MOCAc-Pro-Leu-Gly-Leu-A2pr(Dnp)-Ala-Arg-NH2 substrate, 96-well
Assay type: biochemical
Details: Test Example No. 1-1 (Method 1, 96-well microplate); read-out: Human MMP2, IC50
Method: In a reaction solution [50 mmol/L Tris-HCl (pH 7.5), 150 mmol/L NaCl, 10 mmol/L CaCl2, 0.05% Brij L23], 100 μg/mL human recombinant MMP2 enzyme and 1 mmol/L 4-Aminophenylmercuric acetate were mixed together, and reacted at 37° C. for 60 minutes. The human MMP2 activated through the reaction was poured into a 96-well microplate to reach a final concentration of 0.7 or 7 ng/mL.

| SMILES | IC50 |
| --- | --- |
| CC[C@H](C)[C@@H](C(=O)N[C@@H](CC(=O)O)C(=O)N[C@@H](C)C(=O)N[C@@H](CC(C)C)C(=O)N(C)[C@H](C(=O)N1CCC[C@H]1C(N)=O)[C@@H](C)CC)N(C)C(=O)CCCNC(=O)c1ccc(Oc2ccccc2)cc1 [Compound 121] ({Benzoyl(4-OPh)-GABA}-[NMeI]DAL[NMeI]P-NH2; N-terminus assumed) | 190 pM |
| CC[C@H](C)[C@@H](C(=O)N1CCC[C@H]1C(N)=O)N(C)C(=O)[C@H](CC(C)C)NC(=O)[C@H](C)NC(=O)[C@H](CC(=O)O)NC(=O)[C@H](CCSC)N(C)C(=O)CCCNC(=O)c1ccc(Oc2ccccc2)cc1 [Compound 122] ({Benzoyl(4-OPh)-GABA}-[NMeM]DAL[NMeI]P-NH2; N-terminus assumed) | 160 pM |
| CC[C@H](C)[C@@H](C(=O)N1CCC[C@H]1C(N)=O)N(C)C(=O)[C@H](CC(C)C)NC(=O)[C@H](C)NC(=O)[C@H](CC(=O)O)NC(=O)[C@H](Cc1ccccc1)N(C)C(=O)CCCNC(=O)c1ccc(Oc2ccccc2)cc1 [Compound 124] ({Benzoyl(4-OPh)-GABA}-[NMeF]DAL[NMeI]P-NH2; N-terminus assumed) | 310 pM |
| CC[C@H](C)[C@@H](C(=O)N1CCC[C@H]1C(N)=O)N(C)C(=O)[C@H](CC(C)C)NC(=O)[C@H](C)NC(=O)[C@H](CC(=O)O)NC(=O)[C@H](CC(=O)O)N(C)C(=O)CCCNC(=O)c1ccc(Oc2ccccc2)cc1 [Compound 125] ({Benzoyl(4-OPh)-GABA}-[NMeD]DAL[NMeI]P-NH2) | 470 pM |
| CC[C@H](C)[C@@H](C(=O)N1CCC[C@H]1C(N)=O)N(C)C(=O)[C@H](CC(C)C)NC(=O)[C@H](C)NC(=O)[C@H](CC(=O)O)NC(=O)[C@H](CCC(=O)O)N(C)C(=O)CCCNC(=O)c1ccc(Oc2ccccc2)cc1 [Compound 126] ({Benzoyl(4-OPh)-GABA}-[NMeE]DAL[NMeI]P-NH2; N-terminus assumed) | 290 pM |
| CC[C@H](C)[C@@H](C(=O)N1CCC[C@H]1C(N)=O)N(C)C(=O)[C@H](CC(C)C)NC(=O)[C@H](C)NC(=O)[C@H](CC(=O)O)NC(=O)[C@H](CCCCN)N(C)C(=O)CCCNC(=O)c1ccc(Oc2ccccc2)cc1 [Compound 127] ({Benzoyl(4-OPh)-GABA}-[NMeK]DAL[NMeI]P-NH2; N-terminus assumed) | 240 pM |
| CC[C@H](C)[C@@H](C(=O)N1CCC[C@H]1C(N)=O)N(C)C(=O)[C@H](CC(C)C)NC(=O)[C@H](C)NC(=O)[C@H](CC(=O)O)NC(=O)[C@H](CCC(N)=O)NC(=O)CCCNC(=O)c1ccc(Oc2ccccc2)cc1 [Compound 128] ({Benzoyl(4-OPh)-GABA}-QDAL[NMeI]P-NH2; N-terminus assumed) | 150 pM |
| CC[C@H](C)[C@@H](C(=O)N1CCC[C@H]1C(N)=O)N(C)C(=O)[C@H](CC(C)C)NC(=O)[C@H](C)NC(=O)[C@H](CC(=O)O)NC(=O)[C@H](Cc1ccc(O)cc1)N(C)C(=O)CCCNC(=O)c1ccc(Oc2ccccc2)cc1 [Compound 129] ({Benzoyl(4-OPh)-GABA}-[NMeY]DAL[NMeI]P-NH2) | 460 pM |
| CC[C@H](C)[C@@H](C(=O)N1CCC[C@H]1C(N)=O)N(C)C(=O)[C@H](CC(C)C)NC(=O)[C@H](C)NC(=O)[C@H](CC(=O)O)NC(=O)[C@H](Cc1c[nH]c2ccccc12)N(C)C(=O)CCCNC(=O)c1ccc(Oc2ccccc2)cc1 [Compound 130] ({Benzoyl(4-OPh)-GABA}-[NMeW]DAL[NMeI]P-NH2; N-terminus assumed) | 360 pM |
| CC[C@H](C)[C@@H](C(=O)N1CCC[C@H]1C(N)=O)N(C)C(=O)[C@H](CC(C)C)NC(=O)[C@H](C)NC(=O)[C@H](CC(=O)O)NC(=O)[C@H]([C@@H](C)O)N(C)C(=O)CCCNC(=O)c1ccc(Oc2ccccc2)cc1 [Compound 131] ({Benzoyl(4-OPh)-GABA}-[NMeT]DAL[NMeI]P-NH2; N-terminus assumed) | 360 pM |
| CC[C@H](C)[C@@H](C(=O)N1CCC[C@H]1CC(N)=O)N(C)C(=O)[C@H](CC(C)C)NC(=O)[C@H](CN)NC(=O)[C@H](CC(=O)O)NC(=O)[C@@H]1CCN1C(=O)CCCNC(=O)c1ccc(Oc2ccccc2)cc1 [Compound 132] ({Benzoyl(4-OPh)-GABA}-[Aze]D[Dap]L[NMeI][β3hP]-NH2; N-terminus assumed) | 430 pM |
| CC[C@H](C)[C@@H](C(=O)N1CCC[C@H]1CC(N)=O)N(C)C(=O)[C@H](CC(C)C)NC(=O)[C@H](CCN)NC(=O)[C@H](CC(=O)O)NC(=O)[C@@H]1CCN1C(=O)CCCNC(=O)c1ccc(Oc2ccccc2)cc1 [Compound 133] ({Benzoyl(4-OPh)-GABA}-[Aze]D[Dab]L[NMeI][β3hP]-NH2; N-terminus assumed) | 880 pM |
| CC[C@H](C)[C@@H](C(=O)N1CCC[C@H]1C(N)=O)N(C)C(=O)[C@H](CC(C)C)NC(=O)[C@H](CCN)NC(=O)[C@H](CC(=O)O)NC(=O)[C@H](CCSC)N(C)C(=O)CCCNC(=O)c1ccc(Oc2ccccc2)cc1 [Compound 134] ({Benzoyl(4-OPh)-GABA}-[NMeM]D[Dab]L[NMeI]P-NH2) | 2000 pM |
| CC[C@H](C)[C@@H](C(=O)N1CCC[C@H]1C(N)=O)N(C)C(=O)[C@H](CC(C)C)NC(=O)[C@H](CCN)NC(=O)[C@H](CC(=O)O)NC(=O)[C@H](C(C)C)N(C)C(=O)CCCNC(=O)c1ccc(Oc2ccccc2)cc1 [Compound 135] ({Benzoyl(4-OPh)-GABA}-[NMeV]D[Dab]L[NMeI]P-NH2; N-terminus assumed) | 9300 pM |
| CC[C@H](C)[C@@H](C(=O)N1CCC[C@H]1C(N)=O)N(C)C(=O)[C@H](CC(C)C)NC(=O)[C@H](CCN)NC(=O)[C@H](CC(=O)O)NC(=O)[C@H](CC(C)C)N(C)C(=O)CCCNC(=O)c1ccc(Oc2ccccc2)cc1 [Compound 136] ({Benzoyl(4-OPh)-GABA}-[NMeL]D[Dab]L[NMeI]P-NH2; N-terminus assumed) | 4700 pM |
| CC(C)C[C@H](NC(=O)[C@H](CCN)NC(=O)[C@H](CC(=O)O)NC(=O)[C@@H](NC(=O)CCCNC(=O)c1ccc(Oc2ccccc2)cc1)C(C)C)C(=O)N(C)[C@@H](CCC(=O)O)C(=O)N1CCC[C@H]1CC(N)=O [Compound 143] ({Benzoyl(4-OPh)-GABA}-VD[Dab]L[NMeE][β3hP]-NH2; N-terminus assumed) | 2600 pM |
| CC(C)C[C@H](NC(=O)[C@H](CCN)NC(=O)[C@H](CC(=O)O)NC(=O)[C@H](CCC(=O)O)NC(=O)CCCNC(=O)c1ccc(Oc2ccccc2)cc1)C(=O)N(C)[C@@H](CCC(=O)O)C(=O)N1CCC[C@H]1CC(N)=O [Compound 144] ({Benzoyl(4-OPh)-GABA}-ED[Dab]L[NMeE][β3hP]-NH2; N-terminus assumed) | 260 pM |
| CC(C)C[C@H](NC(=O)[C@H](CCN)NC(=O)[C@H](CC(=O)O)NC(=O)[C@H](CCCN)NC(=O)CCCNC(=O)c1ccc(Oc2ccccc2)cc1)C(=O)N(C)[C@@H](CCC(=O)O)C(=O)N1CCC[C@H]1CC(N)=O [Compound 145] ({Benzoyl(4-OPh)-GABA}-[Orn]D[Dab]L[NMeE][β3hP]-NH2; N-terminus assumed) | 720 pM |
| CC[C@H](C)[C@@H](C(=O)N1CCC[C@H]1CC(N)=O)N(C)C(=O)[C@H](CC(C)C)NC(=O)[C@H](CCN)NC(=O)[C@H](CC(=O)O)NC(=O)[C@@H](NC(=O)CCCNC(=O)c1ccc(Oc2ccccc2)cc1)C(C)C [Compound 146] ({Benzoyl(4-OPh)-GABA}-VD[Dab]L[NMeI][β3hP]-NH2; N-terminus assumed) | 1700 pM |
